From publication doi:10.1101/2020.01.28.923938v1 (biorxiv, 2020)

Molecular target: CYP2D6 (Homo sapiens, UniProt P10635)
Experiment: in situ kinetics of dextrorphan formation in HLM, ADE-OPI-MS
Assay type: biochemical

CYP2D6, sequence (P10635 whole entry): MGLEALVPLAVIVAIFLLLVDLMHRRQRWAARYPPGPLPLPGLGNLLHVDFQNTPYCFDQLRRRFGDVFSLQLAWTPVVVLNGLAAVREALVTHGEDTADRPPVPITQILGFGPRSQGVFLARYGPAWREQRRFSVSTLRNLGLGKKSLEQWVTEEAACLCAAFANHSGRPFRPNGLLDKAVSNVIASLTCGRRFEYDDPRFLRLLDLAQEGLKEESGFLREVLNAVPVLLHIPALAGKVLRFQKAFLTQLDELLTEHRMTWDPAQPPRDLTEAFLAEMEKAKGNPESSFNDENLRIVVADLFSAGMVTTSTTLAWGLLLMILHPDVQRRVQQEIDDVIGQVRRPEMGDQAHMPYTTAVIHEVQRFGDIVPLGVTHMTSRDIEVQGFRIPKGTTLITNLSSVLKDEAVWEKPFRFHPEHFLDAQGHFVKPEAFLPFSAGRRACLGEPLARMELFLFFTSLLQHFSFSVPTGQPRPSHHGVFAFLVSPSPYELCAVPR

COc1ccc2c(c1)[C@]13CCCC[C@@H]1[C@H](C2)N(C)CC3 [dextromethorphan]
Km: 3.79 µM
